Assays:
mitochondrial complex I = assay: Spectrophotometric analysis of complex I activity (NADH oxidation); assay type: biochemical, rat
Procedure: (§1) The animal was then decapitated in order to collect from the brain either the cortex or the striatum, which were quickly placed in a Potter Elvejhem® containing 6 ml of extraction buffer at 4° C. (250 mM sucrose, 40 mM KCl, 2 mM EGTA, lmg/ml BSA, 20 mM Tris, pH=7.2). This mixture was homogenized to break open the cells and release the mitochondria and then centrifuged at 2000 g for 8 minutes to remove the larger membrane debris and the nuclei from the pellet. The supernatant was then recovered and centrifuged at 13,000 g for 11 minutes. The supernatant was discarded while the pellet containing a mitochondria-rich fraction was resuspended in 500 μl of respiration buffer at 4° C. (300 mM D-mannitol, 10 mM KCl, 10 mM KH2PO4, 5 mM MgCl2, pH=7.2). […]
The kinetics of the oxidation reaction of NADH into NAD+ at 340 nm at 37° C. were continuously monitored by spectrophotometry using a JASCO V-530 spectrophotometer or a TECAN 1000M Infinite plate reader, set to a wavelength of 340 nm for 3 min. The amount of mitochondria extract to obtain the maximum activity introduced into the reaction volume was 100 μg with the spectrophotometer and 10 μg with the reader. […] The slope of the kinetics was then measured. […] The inhibition percentage was then calculated.

[1] = test system: mitochondria isolated from rat cerebral cortex; assay: Respiratory control (oxygen consumption, malate/pyruvate) of isolated cerebral cortex mitochondria; assay type: biochemical; conditions: increasing concentration
Procedure: as §1
Added to the polarography chamber (Hansatech) were 30 μl of mitochondria solution (0.2 mg), 460 μL of respiration buffer, 5 μl of test compound solution (meaning MPP+ or furosemide pyridinium) (or its solubilizing solvent). […] The effect of the compound on respiratory control was evaluated (ratio of stage 3 to 4), which corresponds to the coupling of the respiratory chain, or in other words the ATP synthesis at complex V and the oxygen consumption due to complexes I to IV. The results are expressed as percentages of the value measured for mitochondria not treated with the test compound (but treated with the solubilizing solvent).

caspase-8 = assay: Caspase-8 activity (Ac-IETD-AFC cleavage) in SH-SY5Y cells; assay type: cell-based, human; conditions: 1 mM, 6 h (+24 h without MPP+)
Procedure: Measurement of the activities of the various caspases is based on the ability of the caspases to cleave specific fluorescent substrates: Ac-DEVD-AFC for caspase-3, Ac-IETD-AFC for caspase-8, or Ac-LEHD-AFC for caspase-9. SH-SY5Y neuronal cells were incubated in 48-well plates with either furosemide pyridinium (1 mM) for 96 h or with MPP+ (1 mM) for 6 h, then 24 h of incubation with no MPP+. After incubation, the cells were trypsinized, then rinsed with PBS and counted, then harvested in 100 μl of buffer containing 30 mM HEPES, 0.3 mM EDTA, 100 mM NaCl, 0.15% Triton X-100, and 10 mM DTT. The cell extract was then incubated for 1 hour at 37° C. with the specific substrate (100 μM) in a 96-well plate. Fluorescence was measured at λex400 nm and λem505 nm in a fluorescence detection plate reader (TECAN Infinite M1000) (Yue et al., supra). The results were expressed as percentages relative to the measured activity of cells cultured under the same conditions and not subjected to any treatment.

α-synuclein = assay: Cellular accumulation of α-synuclein (Western blot) in SH-SY5Y cells; assay type: cell-based, human; conditions: 1 mM, 6 h incubation (+24 h without MPP+)
Procedure: Cells were incubated under the same conditions as above with furosemide pyridinium (1 mM, incubation: 96 h) and MPP+ (1 mM, incubation: 6 h, wait 24 h). After incubation, the cells were trypsinized, rinsed with PBS, counted, then harvested in 100 μl of buffer containing: 250 mM sucrose; 70 mM KCl; 137 mm NaCl; 4.3 mm NaH2PO4; 1.4 mm KH2PO4, pH 7.2; and […] digitonin. Incubation at 4° C. was then conducted for 5 minutes before centrifuging at 13,000 g for 5 minutes to separate the cytosolic and lysosomal fraction from the mitochondrial fraction. Deposits of cytosolic fraction in the Western blot were adjusted according to the number of cells. The protein samples were diluted in 4× Laemmli and were then heated for 3 minutes at 95° C. to denature. They were loaded into the wells of gel. In addition to the samples, a molecular weight marker (Fermentas) was deposited in the gel. […] The transfer was carried out on PVDF membrane. The transfer was done in transfer buffer (25 mM Tris, 192 mM glycine, 10% methanol) overnight at 4° C. and 30V or for 2 hours at 4° C. and 80V. […] Then the membranes were immunolabeled for 1.5 h at room temperature with a primary antibody diluted in 1×PBS/0.2% Tween/3% milk. […] The primary antibody used was anti-α-synuclein, 1:500 (visualized with an anti-rabbit secondary antibody, 1:10,000).

SH-SY5Y neuronal cells = assay: Cell viability test in MTT; assay type: cell-based, human
Procedure: Cells from SH-SY5Y human neuroblastomas were cultured in a DMEM medium containing 4.5 g·L^−1 glucose, 10% fetal calf serum, and 1% penicillin/streptomycin, and placed in an incubator at 37° C. with 7% CO2.
In the various experiments, the SH-SY5Y cells were seeded at a density of 4×10^4 cells/mL. 24 h after seeding, the cells were exposed to the various test compounds at 37° C. for 24 h, 48 h, 72 h, or 96 h.
This test consisted of rapidly measuring cellular metabolic activity in the presence of the study compound at different concentrations, in order to conduct a dose-response study. To do this, the tetrazolium salt MTT, 3-(4,5-dimethylthiazol-2-yl)-2,5-diphenyltetrazolium bromide (Amoroso et al., Biochim Biophys Acta, 1999, 1452(2):151-60), was placed in contact with the cells. MTT is reduced to formazan by living cells that have the capacity to metabolize it, unlike dead cells. To conduct this test, SH-SY5Y neuronal cells in 48-well plates were incubated for 24 h, 48 h, 72 h, and 96 h, with furosemide pyridinium at concentrations ranging from 0 to 1000 μM. Then MTT (0.5 mg/ml final) was added to each well and incubated at 37° C. for 2 h. At the end of incubation, after carefully removing the medium, DMSO was added (200 μL) to dissolve the cell membranes and the formazan crystals formed by the living cells. The toxicity of the molecule was evaluated by determining the amount of reduced MTT, doing so by measuring the absorbance at 550 nm as this value is proportional to the number of living cells. The results were expressed as a function of the values obtained for cells treated only with the solvent used to dissolve the compound of interest. To compare the toxicity of furosemide pyridinium to that of MPP+, the cells were incubated in the presence of MPP+ (0 to 1000 μM) for 6 h. The culture medium was replaced and the cells were incubated at 37° C. for an additional 24 h (no MPP+). Cell survival was measured at the end of these 24 hours of incubation as described above. When evaluating the effect of different concentrations of α-tocopherol (vitamin E), a membrane antioxidant, the cells were pretreated for 24 h with this antioxidant before being exposed to furosemide pyridinium at a concentration of 0.5 mM under the same experimental conditions as above.

[2] = test system: respiratory chain complexes II-V of rat cerebral cortex mitochondria; assay: Respiratory control after induction of complex II by succinate and inhibition of complex I by rotenone; assay type: biochemical; conditions: 1 mM, succinate
Procedure: as §1
Added to the polarography chamber (Hansatech) were 30 μl of mitochondria solution (0.2 mg), 460 μL of respiration buffer, 5 μl of test compound solution (meaning MPP+ or furosemide pyridinium) (or its solubilizing solvent). […] The effect of the compound on respiratory control was evaluated (ratio of stage 3 to 4), which corresponds to the coupling of the respiratory chain, or in other words the ATP synthesis at complex V and the oxygen consumption due to complexes I to IV. The results are expressed as percentages of the value measured for mitochondria not treated with the test compound (but treated with the solubilizing solvent). […]

SMILES: Clc1ccc(-[n+]2ccccc2)cc1.[Cl-] [1-(4-chlorophenyl) pyridinium, 1-(4-chlorophenyl) pyridinium chloride]
- inhibition of complex I activity (mitochondrial complex I; concentration not given): 95%

SMILES: Oc1ccc[n+](-c2ccc(Cl)cc2)c1.[Cl-] [1-(4-chlorophenyl)-3-hydroxypyridinium, 1-(4-chlorophenyl)-3-hydroxypyridinium chloride]
- inhibition of complex I activity (mitochondrial complex I; 0.2 mM): complete inhibition

SMILES: C[n+]1ccc(-c2ccccc2)cc1 [MPP+, reference compound]
- respiratory control of cerebral cortex mitochondria induced by malate/pyruvate [1]: diminished
- change in caspase-8 activity (caspase-8): did not induce significant changes
- increase in the total amount of α-synuclein compared to control cells (α-synuclein): 319%
- cell death (SH-SY5Y neuronal cells; 1 mM, 6 h incubation (+24 h without MPP+)): massive cell death
- EC50 (SH-SY5Y neuronal cells; 6 h incubation (+24 h without MPP+), read-out: EC50 (cell survival)): 386 ± 19.2 µM
- respiratory control of cortex mitochondria after induction by complex II [2]: not modified

SMILES: Cc1c(C)c2c(c(C)c1O)CC[C@@](C)(CCC[C@H](C)CCC[C@H](C)CCCC(C)C)O2 [α-tocopherol]
- concentration at which the protective effect becomes visible (SH-SY5Y neuronal cells; 24 h pretreatment, then 0.5 mM furosemide pyridinium): 0.1 mg/mL
- cell survival rate after 24 h pretreatment before 0.5 mM furosemide pyridinium (SH-SY5Y neuronal cells; 24 h pretreatment, then 0.5 mM furosemide pyridinium 96 h): increased the cell survival rate in a dose-dependent manner
- increase of cell survival, α-tocopherol alone (SH-SY5Y neuronal cells; pretreatment 1 μg/mL, without furosemide pyridinium): 20%
- change of cell survival, α-tocopherol alone (SH-SY5Y neuronal cells; pretreatment 0.01 and 0.1 μg/mL, without furosemide pyridinium): did not change cell survival
